From DBAASP come the findings set out here.

Each structure is given as a SMILES string. In brackets after ≈: the same amount, converted by molar mass. Where only a bound is given, the exact number is not on record here.

Test systems include Bacillus cereus AS1.126; Escherichia coli; Escherichia coli AS1.349; Lactococcus lactis; Bacillus cereus; Staphylococcus aureus.
Holding throughout (assay): ≥ marks a high value that may be exact or a test limit, other limits are often not marked, values filed in µg/mL are converted to µM
Assay [1] relates to Staphylococcus aureus ATCC 25923.
In assay [2] the test system is Escherichia coli ATCC 25726.
The test system of assay [3] is Acinetobacter baumannii I NM8.
Assay [4] has as its system Klebsiella pneumoniae ATCC 700603.
Assay [5] deals with Batrachochytrium dendrobatidis JEL-197.
Assay [6] concerns Escherichia coli ATCC 25922.
Assay [7] concerns Pseudomonas aeruginosa ATCC 27853.
The subject of assay [8] is Staphylococcus aureus CUN 3792-99.
Assay [9] relates to Stenotrophomonas maltophilia CUN 3998-00.
Assay [10] concerns Acinetobacter baumannii ATCC 19606.
The subject of assay [11] is Bordetella bronchiseptica CUN 11844-99.
The subject of assay [12] is Staphylococcus aureus ATCC 43300.
Assay [13] deals with Pseudomonas aeruginosa CUN 4158-02.
The test system of assay [14] is Klebsiella pneumoniae KK3 9904.
Assay [15] deals with Candida albicans ATCC 90028.
The test system of assay [16] is Enterobacter cloacae NHTCC 53001.
The subject of assay [17] is Staphylococcus aureus NCTC 8325.
In assay [18] the test system is Klebsiella aerogenes CGMCC 1.876.
The test system of assay [19] is Pseudomonas aeruginosa CGMCC 1.860.
Assay [20] deals with Streptococcus salivarius CGMCC 1.2498.
For assay [21], the system named is Klebsiella pneumoniae subsp. pneumoniae CGMCC 1.176.
The subject of assay [22] is Enterobacter cloacae CGMCC 1.58.
The subject of assay [23] is Escherichia coli ATCC 11775.
Assay [24] concerns Lactococcus lactis AS1.1690.
For assay [25], the system named is Candida albicans CMCC 98001.
Assay [26] relates to Enterococcus faecium CGMCC 1.2334.
In assay [27] the test system is Fusobacterium nucleatum CGMCC 1.2526.
For assay [28], the system named is Lactobacillus acidophilus CGMCC 1.1854.
Assay [29] concerns Staphylococcus aureus ATCC 12600.
In assay [30] the test system is Staphylococcus aureus AS1.72.
Assay [31] has as its system Enterococcus faecalis CGMCC 1.595.
Assay [32] concerns Streptococcus sanguinis CGMCC 1.2497.
For assay [33], the system named is Streptococcus mutans CGMCC 1.2500.

In general, MIC refers to the lowest concentration found to suppress growth. Higher therefore signals weaker potency. With `CC(C)C[C@H](NC(=O)CNC(=O)CNC(=O)[C@H](CCCCN)NC(=O)[C@H](C)NC(=O)[C@H](Cc1ccccc1)NC(=O)[C@H](CCCCN)NC(=O)[C@H](CCCCN)NC(=O)[C@H](CC(C)C)NC(=O)CNC(=O)[C@H](CCC(=O)O)NC(=O)[C@H](CC(C)C)NC(=O)[C@H](C)NC(=O)[C@H](CO)NC(=O)[C@H](CO)NC(=O)[C@H](Cc1c[nH]c2ccccc12)NC(=O)[C@H](Cc1ccccc1)NC(=O)CN)C(=O)N[C@@H](CCC(=O)O)C(=O)N[C@@H](C)C(=O)N[C@@H](CC(C)C)C(=O)N[C@H](C(=O)N[C@@H](CC(N)=O)C(=O)N1CCC[C@H]1C(=O)N[C@@H](CCCCN)C(=O)O)[C@@H](C)O` [GFWSSALEGLKKFAKGGLEALTNPK], the MIC in [1] was above 100 µM; in [2], at least 50 µM; in [3], 12.5 µM (≈ 33.1 µg/mL); in [4] it was above 50 µM.
Turning to `CC[C@H](C)[C@H](NC(=O)CN)C(=O)N[C@@H](CC(C)C)C(=O)N[C@@H](CC(=O)O)C(=O)N[C@H](C(=O)N[C@@H](Cc1ccccc1)C(=O)N[C@@H](CCCCN)C(=O)NCC(=O)N[C@H](C(=O)N[C@@H](C)C(=O)N[C@@H](CCCCN)C(=O)NCC(=O)N[C@H](C(=O)N[C@@H](C)C(=O)N[C@@H](CCCCN)C(=O)N[C@@H](CC(=O)O)C(=O)N[C@@H](CC(C)C)C(=O)N[C@@H](C)C(=O)N[C@H](C(=O)N[C@@H](Cc1cnc[nH]1)C(=O)N[C@@H](CCSC)C(=O)N[C@@H](CC(C)C)C(=O)N[C@@H](CCC(=O)O)C(=O)N[C@@H](CC(N)=O)C(=O)N[C@@H](CC(C)C)C(=O)N[C@@H](CCCCN)C(=O)N[C@H]1CSSC[C@@H](C(=O)O)NC(=O)CNC(=O)[C@H]([C@@H](C)O)NC(=O)[C@H](CCSC)NC(=O)[C@H](CCCCN)NC1=O)C(C)C)C(C)C)C(C)C)[C@@H](C)O` [GILDTFKGVAKGVAKDLAVHMLENLKCKMTGC], the minimum inhibitory concentration (MIC) in assay [1] is 100 µM (≈ 339 µg/mL); in assay [5], at least 50 µM; in assay [2], at least 50 µM.
Turning to `NCCCC[C@H](NC(=O)CNC(=O)[C@H](CCCCN)NC(=O)[C@H](Cc1ccccc1)NC(=O)[C@H](CCCCN)NC(=O)[C@H](Cc1c[nH]c2ccccc12)NC(=O)[C@H](Cc1ccccc1)NC(=O)[C@H](CCCN=C(N)N)NC(=O)[C@H](CCCN=C(N)N)NC(=O)[C@H](Cc1ccc(O)cc1)NC(=O)[C@H](CCCCN)NC(=O)[C@H](CCCCN)NC(=O)CN)C(=O)N[C@@H](Cc1c[nH]c2ccccc12)C(=O)N[C@@H](Cc1ccccc1)C(=O)N[C@@H](Cc1c[nH]c2ccccc12)C(=O)N[C@@H](Cc1ccccc1)C(=O)N[C@@H](Cc1c[nH]c2ccccc12)C(=O)NCC(N)=O` [GKKYRRFWKFKGKWFWFWG], the MIC in [1] was 388 µM (≈ 1020 µg/mL); in assay [6], 388 µM (≈ 1020 µg/mL); in assay [7], 3.03 µM (≈ 8 µg/mL); in assay [8], 6.06 µM (≈ 16 µg/mL); in assay [9], 24.3 µM (≈ 64 µg/mL); in assay [10] it was 6.06 µM (≈ 16 µg/mL). Moreover, the minimum inhibitory concentration (MIC) stood at 3.03 µM (≈ 8 µg/mL) in assay [11], 6.06 µM (≈ 16 µg/mL) in assay [12] and 12.1 µM (≈ 32 µg/mL) in assay [13].
On to `CC[C@H](C)[C@@H]1NC(=O)[C@H](CCCCN)NC(=O)[C@@H](NC(=O)[C@H](CCCCN)NC(=O)[C@H](C)NC(=O)[C@H](CCC(N)=O)NC(=O)[C@H](CC(=O)O)NC(=O)[C@H](CC(C)C)NC(=O)[C@H](CC(C)C)NC(=O)[C@H](CO)NC(=O)CNC(=O)CNC(=O)[C@@H](NC(=O)[C@H](CC(N)=O)NC(=O)[C@H](CCCCN)NC(=O)[C@H](Cc2ccccc2)NC(=O)[C@@H](NC(=O)[C@H](Cc2cnc[nH]2)NC(=O)[C@H](CCCCN)NC(=O)CNC(=O)[C@H](C)NC(=O)[C@@H](NC(=O)[C@H](CCCCN)NC(=O)[C@H](CC(C)C)NC(=O)[C@@H](NC(=O)CNC(=O)[C@H](CCCCN)NC(=O)[C@@H](NC(=O)[C@@H](NC(=O)[C@H](CO)NC(=O)[C@H](CCSC)NC(=O)[C@H](CC(C)C)NC(=O)CN)C(C)C)[C@@H](C)O)C(C)C)[C@@H](C)O)[C@@H](C)CC)C(C)C)CSSC[C@@H](C(=O)O)NC(=O)[C@H](CCC(N)=O)NC(=O)CNC(=O)[C@H](CO)NC1=O` [GLMSVTKGVLKTAGKHIFKNVGGSLLDQAKCKISGQC], for which the minimum inhibitory concentration (MIC) in [14] is 12 µM (≈ 45.8 µg/mL); in assay [6], 3 µM (≈ 11.4 µg/mL); in assay [7], 6 µM (≈ 22.9 µg/mL); in [15], at least 100 µM; in assay [16], 6 µM (≈ 22.9 µg/mL); in [17] it was 25 µM (≈ 95.4 µg/mL).
With `CC[C@H](C)[C@H](N)C(=O)N[C@@H](CC(C)C)C(=O)N1CCC[C@H]1C(=O)N[C@H](C(=O)N[C@@H](CC(C)C)C(=O)N[C@@H](CO)C(=O)N[C@@H](CC(C)C)C(=O)N[C@H](C(=O)NCC(=O)NCC(=O)N[C@@H](CC(C)C)C(=O)N[C@@H](CC(C)C)C(N)=O)[C@@H](C)CC)[C@@H](C)CC` [ILPILSLIGGLL], the MIC is at least 62.5 µM against Bacillus cereus AS1.126; at least 250 µM in assay [18]; at least 125 µM in [19]; above 100 µM in the assay on Escherichia coli; at least 125 µM in the assay on Escherichia coli AS1.349; at least 75 µM in assay [20]. For the same compound, the MIC in assay [21] is at least 175 µM; in assay [22], at least 250 µM; in assay [23], at least 100 µM; in [24], at least 62.5 µM; in assay [25], at least 50 µM; with Lactococcus lactis, at least 41 µM. The MIC in assay [26] was at least 125 µM; in assay [27], at least 75 µM; in [28], at least 37.5 µM; in assay [29] it was at least 100 µM; in assay [30], at least 62.5 µM; against Bacillus cereus it was at least 41 µM. Further, the MIC in assay [31] was at least 125 µM; in [32], at least 37.5 µM; in [33], at least 50 µM; against Staphylococcus aureus it was 41 µM (≈ 50 µg/mL).
